In ChEMBL document CHEMBL3137667, “[Drug-induced liver injury; fourteenth updated edition of the bibliographic database of liver injuries and related drugs]” (Gastroenterol Clin Biol, 2004):

Assays:
[1] = human
[2] = human; remark: listed apart in the source
[3] = human; remark: listed apart in the source
[4] = human; remark: listed apart in the source
[5] = human; remark: listed apart in the source
[6] = Highest frequency of acute liver toxicity observed during clinical trials, expressed as a percentage. [column '% AIGUE' in source]; conditions: human
[7] = Highest frequency of moderate liver toxicity observed during clinical trials, expressed as a percentage. [column '% BIOL' in source]; conditions: human
[8] = human; remark: listed apart in the source
[9] = human; remark: listed apart in the source
[10] = human, serum
[11] = human; remark: listed apart in the source
[12] = human, serum, 4383 h
[13] = human, serum; remark: listed apart in the source
[14] = human; remark: listed apart in the source
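Throughout, for Hepatotoxicity (association with vascular disease): count of indexed literature references reporting vascular liver injury in humans, e.g. peliosis hepatitis, hepatic veno-occlusive disease or Budd-Chiari syndrome.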
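Throughout, for Hepatotoxicity (benign tumour): value is a count of indexed literature references citing a benign tumour confirmed by histopathology.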
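Throughout, for Hepatotoxicity (choleostasis): human cholestatic liver injury, shown by histopathology or by peak ALT or AST elevation over alkaline phosphatase ratio below 2, value counts indexed literature reports.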
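Throughout, for Hepatotoxicity (chronic liver disease): chronic liver injury confirmed by histopathology or persistently raised serum aminotransferase activity beyond 6 months, value given as the count of indexed literature references.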
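Throughout, for Hepatotoxicity (cirrhosis): value is a count of indexed literature references reporting cirrhosis confirmed by histopathology.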
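Throughout, for Hepatotoxicity (cytolytic): human cytolytic liver injury, shown by histopathology or by a ratio above 5 of peak ALT or AST elevation to alkaline phosphatase elevation, value counts indexed references.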
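Throughout, for Hepatotoxicity (granulomatous hepatitis): value is a count of indexed literature references reporting granulomatous liver disease confirmed by histopathology.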
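Throughout, for Hepatotoxicity (malignant tumour): malignant tumour confirmed by histopathology, value gives the count of indexed literature references reporting it.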
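Throughout, for Hepatotoxicity (severe hepatitis): human clinical data: severe hepatitis, meaning potentially life-threatening liver failure or clinically observed cases, the value counts how many indexed literature references report it.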
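Throughout, for Hepatotoxicity (steatosis): steatosis confirmed by histopathology, value is the count of indexed references.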

CC(C)/N=C/Nc1ccc(-c2c[nH]cn2)cc1 [MIFENTIDINE]
Hepatotoxicity (steatosis) [1]: 0 | Hepatotoxicity (benign tumour) [2]: 0 | Hepatotoxicity (severe hepatitis) [3]: 0 | Hepatotoxicity (malignant tumour) [4]: 0 | Hepatotoxicity (choleostasis) [5]: 0 | Hepatotoxicity (acute) [6]: 0% | Hepatotoxicity (moderate) [7]: 3.3% | Hepatotoxicity (granulomatous hepatitis) [8]: 0 | Hepatotoxicity (association with vascular disease) [9]: 0 | Hepatotoxicity (acute) [10]: 0 | Hepatotoxicity (cytolytic) [11]: 0 | Hepatotoxicity (chronic liver disease) [12]: 0 | Hepatotoxicity (moderate) [13]: 1 | Hepatotoxicity (cirrhosis) [14]: 0

Cc1[nH]c(=O)c(C#N)cc1-c1ccncc1 [MILRINONE]
Hepatotoxicity (steatosis) [1]: 0 | Hepatotoxicity (benign tumour) [2]: 0 | Hepatotoxicity (severe hepatitis) [3]: 0 | Hepatotoxicity (malignant tumour) [4]: 0 | Hepatotoxicity (choleostasis) [5]: 0 | Hepatotoxicity (acute) [6]: 0% | Hepatotoxicity (moderate) [7]: 2% | Hepatotoxicity (granulomatous hepatitis) [8]: 0 | Hepatotoxicity (association with vascular disease) [9]: 0 | Hepatotoxicity (acute) [10]: 0 | Hepatotoxicity (cytolytic) [11]: 0 | Hepatotoxicity (chronic liver disease) [12]: 0 | Hepatotoxicity (moderate) [13]: 2 | Hepatotoxicity (cirrhosis) [14]: 0

CCCCC(C)(O)C/C=C/[C@H]1[C@H](O)CC(=O)[C@@H]1CCCCCCC(=O)OC (some centres undefined) [MISOPROSTOL]
Hepatotoxicity (steatosis) [1]: 0 | Hepatotoxicity (benign tumour) [2]: 0 | Hepatotoxicity (severe hepatitis) [3]: 0 | Hepatotoxicity (malignant tumour) [4]: 0 | Hepatotoxicity (choleostasis) [5]: 0 | Hepatotoxicity (acute) [6]: 0% | Hepatotoxicity (moderate) [7]: 16.7% | Hepatotoxicity (granulomatous hepatitis) [8]: 0 | Hepatotoxicity (association with vascular disease) [9]: 0 | Hepatotoxicity (acute) [10]: 0 | Hepatotoxicity (cytolytic) [11]: 0 | Hepatotoxicity (chronic liver disease) [12]: 0 | Hepatotoxicity (moderate) [13]: 6 | Hepatotoxicity (cirrhosis) [14]: 0

CC(/C=N/NC(=N)N)=N\NC(=N)N [MITOGUAZONE]
Hepatotoxicity (steatosis) [1]: 0 | Hepatotoxicity (benign tumour) [2]: 0 | Hepatotoxicity (severe hepatitis) [3]: 0 | Hepatotoxicity (malignant tumour) [4]: 0 | Hepatotoxicity (choleostasis) [5]: 0 | Hepatotoxicity (acute) [6]: 0% | Hepatotoxicity (moderate) [7]: 18.2% | Hepatotoxicity (granulomatous hepatitis) [8]: 0 | Hepatotoxicity (association with vascular disease) [9]: 0 | Hepatotoxicity (acute) [10]: 0 | Hepatotoxicity (cytolytic) [11]: 0 | Hepatotoxicity (chronic liver disease) [12]: 0 | Hepatotoxicity (moderate) [13]: 1 | Hepatotoxicity (cirrhosis) [14]: 0

CCNNC(=O)[C@@H]1[C@H](c2cc(OC)c(OC)c(OC)c2)c2cc3c(cc2[C@H](O)[C@H]1CO)OCO3 [MITOPODOZIDE]
Hepatotoxicity (steatosis) [1]: 0 | Hepatotoxicity (benign tumour) [2]: 0 | Hepatotoxicity (severe hepatitis) [3]: 0 | Hepatotoxicity (malignant tumour) [4]: 0 | Hepatotoxicity (choleostasis) [5]: 0 | Hepatotoxicity (acute) [6]: 0% | Hepatotoxicity (moderate) [7]: 1.3% | Hepatotoxicity (granulomatous hepatitis) [8]: 0 | Hepatotoxicity (association with vascular disease) [9]: 0 | Hepatotoxicity (acute) [10]: 0 | Hepatotoxicity (cytolytic) [11]: 0 | Hepatotoxicity (chronic liver disease) [12]: 0 | Hepatotoxicity (moderate) [13]: 1 | Hepatotoxicity (cirrhosis) [14]: 0

COc1ccc(-c2noc(CC(=O)O)c2-c2ccc(OC)cc2)cc1 [MOFEZOLAC]
Hepatotoxicity (steatosis) [1]: 0 | Hepatotoxicity (benign tumour) [2]: 0 | Hepatotoxicity (severe hepatitis) [3]: 0 | Hepatotoxicity (malignant tumour) [4]: 0 | Hepatotoxicity (choleostasis) [5]: 0 | Hepatotoxicity (acute) [6]: 0% | Hepatotoxicity (moderate) [7]: 0% | Hepatotoxicity (granulomatous hepatitis) [8]: 0 | Hepatotoxicity (association with vascular disease) [9]: 0 | Hepatotoxicity (acute) [10]: 0 | Hepatotoxicity (cytolytic) [11]: 0 | Hepatotoxicity (chronic liver disease) [12]: 0 | Hepatotoxicity (moderate) [13]: 1 | Hepatotoxicity (cirrhosis) [14]: 0

O=C(CCCN1CCN(c2ccc(F)cc2)CC1)NC1c2ccccc2CSc2ccccc21 (centres undefined) [MONATEPIL]
Hepatotoxicity (steatosis) [1]: 0 | Hepatotoxicity (benign tumour) [2]: 0 | Hepatotoxicity (severe hepatitis) [3]: 0 | Hepatotoxicity (malignant tumour) [4]: 0 | Hepatotoxicity (choleostasis) [5]: 0 | Hepatotoxicity (acute) [6]: 0% | Hepatotoxicity (moderate) [7]: 4.5% | Hepatotoxicity (granulomatous hepatitis) [8]: 0 | Hepatotoxicity (association with vascular disease) [9]: 0 | Hepatotoxicity (acute) [10]: 0 | Hepatotoxicity (cytolytic) [11]: 0 | Hepatotoxicity (chronic liver disease) [12]: 0 | Hepatotoxicity (moderate) [13]: 1 | Hepatotoxicity (cirrhosis) [14]: 0

CO[C@@]1(NC(=O)C(C(=O)[O-])c2ccc(O)cc2)C(=O)N2C(C(=O)[O-])=C(CSc3nnnn3C)CO[C@@H]21.[Na+].[Na+] (some centres undefined) [MOXALACTAM DISODIUM]
Hepatotoxicity (steatosis) [1]: 0 | Hepatotoxicity (benign tumour) [2]: 0 | Hepatotoxicity (severe hepatitis) [3]: 0 | Hepatotoxicity (malignant tumour) [4]: 0 | Hepatotoxicity (choleostasis) [5]: 1 | Hepatotoxicity (acute) [6]: 3.3% | Hepatotoxicity (moderate) [7]: 36.5% | Hepatotoxicity (granulomatous hepatitis) [8]: 0 | Hepatotoxicity (association with vascular disease) [9]: 0 | Hepatotoxicity (acute) [10]: 1 | Hepatotoxicity (cytolytic) [11]: 0 | Hepatotoxicity (chronic liver disease) [12]: 0 | Hepatotoxicity (moderate) [13]: 13 | Hepatotoxicity (cirrhosis) [14]: 0

COc1ccc2cc(CCC(C)=O)ccc2c1 [NABUMETONE]
Hepatotoxicity (steatosis) [1]: 0 | Hepatotoxicity (benign tumour) [2]: 0 | Hepatotoxicity (severe hepatitis) [3]: 0 | Hepatotoxicity (malignant tumour) [4]: 0 | Hepatotoxicity (choleostasis) [5]: 0 | Hepatotoxicity (acute) [6]: 0% | Hepatotoxicity (moderate) [7]: 4.5% | Hepatotoxicity (granulomatous hepatitis) [8]: 0 | Hepatotoxicity (association with vascular disease) [9]: 0 | Hepatotoxicity (acute) [10]: 1 | Hepatotoxicity (cytolytic) [11]: 1 | Hepatotoxicity (chronic liver disease) [12]: 0 | Hepatotoxicity (moderate) [13]: 8 | Hepatotoxicity (cirrhosis) [14]: 0

C/N=C(/Cc1ccc2ccccc2c1)NC [NAPACTADINE]
Hepatotoxicity (steatosis) [1]: 0 | Hepatotoxicity (benign tumour) [2]: 0 | Hepatotoxicity (severe hepatitis) [3]: 0 | Hepatotoxicity (malignant tumour) [4]: 0 | Hepatotoxicity (choleostasis) [5]: 0 | Hepatotoxicity (acute) [6]: 0% | Hepatotoxicity (moderate) [7]: 0% | Hepatotoxicity (granulomatous hepatitis) [8]: 0 | Hepatotoxicity (association with vascular disease) [9]: 0 | Hepatotoxicity (acute) [10]: 0 | Hepatotoxicity (cytolytic) [11]: 0 | Hepatotoxicity (chronic liver disease) [12]: 0 | Hepatotoxicity (moderate) [13]: 1 | Hepatotoxicity (cirrhosis) [14]: 0

CCCN1CCO[C@@H]2c3cc(O)ccc3CC[C@H]21 [NAXAGOLIDE]
Hepatotoxicity (steatosis) [1]: 0 | Hepatotoxicity (benign tumour) [2]: 0 | Hepatotoxicity (severe hepatitis) [3]: 0 | Hepatotoxicity (malignant tumour) [4]: 0 | Hepatotoxicity (choleostasis) [5]: 0 | Hepatotoxicity (acute) [6]: 0% | Hepatotoxicity (moderate) [7]: 11.1% | Hepatotoxicity (granulomatous hepatitis) [8]: 0 | Hepatotoxicity (association with vascular disease) [9]: 0 | Hepatotoxicity (acute) [10]: 0 | Hepatotoxicity (cytolytic) [11]: 0 | Hepatotoxicity (chronic liver disease) [12]: 0 | Hepatotoxicity (moderate) [13]: 1 | Hepatotoxicity (cirrhosis) [14]: 0

NCC1CC(=O)N(Cc2ccccc2)C1 (centres undefined) [NEBRACETAM]
Hepatotoxicity (steatosis) [1]: 0 | Hepatotoxicity (benign tumour) [2]: 0 | Hepatotoxicity (severe hepatitis) [3]: 0 | Hepatotoxicity (malignant tumour) [4]: 0 | Hepatotoxicity (choleostasis) [5]: 0 | Hepatotoxicity (acute) [6]: 0% | Hepatotoxicity (moderate) [7]: 11.1% | Hepatotoxicity (granulomatous hepatitis) [8]: 0 | Hepatotoxicity (association with vascular disease) [9]: 0 | Hepatotoxicity (acute) [10]: 0 | Hepatotoxicity (cytolytic) [11]: 0 | Hepatotoxicity (chronic liver disease) [12]: 0 | Hepatotoxicity (moderate) [13]: 1 | Hepatotoxicity (cirrhosis) [14]: 0

CCCc1c2oc(C(=O)O)cc(=O)c2cc2c(=O)cc(C(=O)O)n(CC)c12 [NEDOCROMIL]
Hepatotoxicity (steatosis) [1]: 0 | Hepatotoxicity (benign tumour) [2]: 0 | Hepatotoxicity (severe hepatitis) [3]: 0 | Hepatotoxicity (malignant tumour) [4]: 0 | Hepatotoxicity (choleostasis) [5]: 0 | Hepatotoxicity (acute) [6]: 0% | Hepatotoxicity (moderate) [7]: 3.3% | Hepatotoxicity (granulomatous hepatitis) [8]: 0 | Hepatotoxicity (association with vascular disease) [9]: 0 | Hepatotoxicity (acute) [10]: 0 | Hepatotoxicity (cytolytic) [11]: 0 | Hepatotoxicity (chronic liver disease) [12]: 0 | Hepatotoxicity (moderate) [13]: 2 | Hepatotoxicity (cirrhosis) [14]: 0

CCN[C@@H]1C[C@H](N)[C@@H](O[C@H]2OC(CN)=CC[C@H]2N)[C@H](O)[C@H]1O[C@H]1OC[C@](C)(O)[C@H](NC)[C@H]1O [NETILMICIN]
Hepatotoxicity (steatosis) [1]: 0 | Hepatotoxicity (benign tumour) [2]: 0 | Hepatotoxicity (severe hepatitis) [3]: 0 | Hepatotoxicity (malignant tumour) [4]: 0 | Hepatotoxicity (choleostasis) [5]: 0 | Hepatotoxicity (acute) [6]: 0% | Hepatotoxicity (moderate) [7]: 29.4% | Hepatotoxicity (granulomatous hepatitis) [8]: 0 | Hepatotoxicity (association with vascular disease) [9]: 0 | Hepatotoxicity (acute) [10]: 0 | Hepatotoxicity (cytolytic) [11]: 0 | Hepatotoxicity (chronic liver disease) [12]: 0 | Hepatotoxicity (moderate) [13]: 5 | Hepatotoxicity (cirrhosis) [14]: 0

O=C(OCC(COC(=O)c1cccnc1)(COC(=O)c1cccnc1)COC(=O)c1cccnc1)c1cccnc1 [NICERITROL]
Hepatotoxicity (steatosis) [1]: 0 | Hepatotoxicity (benign tumour) [2]: 0 | Hepatotoxicity (severe hepatitis) [3]: 0 | Hepatotoxicity (malignant tumour) [4]: 0 | Hepatotoxicity (choleostasis) [5]: 0 | Hepatotoxicity (acute) [6]: 0% | Hepatotoxicity (moderate) [7]: 5% | Hepatotoxicity (granulomatous hepatitis) [8]: 0 | Hepatotoxicity (association with vascular disease) [9]: 0 | Hepatotoxicity (acute) [10]: 0 | Hepatotoxicity (cytolytic) [11]: 0 | Hepatotoxicity (chronic liver disease) [12]: 0 | Hepatotoxicity (moderate) [13]: 1 | Hepatotoxicity (cirrhosis) [14]: 0

COC(=O)C1=C(C#N)NC(C)=C(C(=O)OC(C)C)C1c1cccc([N+](=O)[O-])c1 (centres undefined) [NILVADIPINE]
Hepatotoxicity (steatosis) [1]: 0 | Hepatotoxicity (benign tumour) [2]: 0 | Hepatotoxicity (severe hepatitis) [3]: 0 | Hepatotoxicity (malignant tumour) [4]: 0 | Hepatotoxicity (choleostasis) [5]: 0 | Hepatotoxicity (acute) [6]: 0% | Hepatotoxicity (moderate) [7]: 6.3% | Hepatotoxicity (granulomatous hepatitis) [8]: 0 | Hepatotoxicity (association with vascular disease) [9]: 0 | Hepatotoxicity (acute) [10]: 0 | Hepatotoxicity (cytolytic) [11]: 0 | Hepatotoxicity (chronic liver disease) [12]: 0 | Hepatotoxicity (moderate) [13]: 3 | Hepatotoxicity (cirrhosis) [14]: 0
